biological target: PLK1 (Homo sapiens, UniProt P53350); test: PLK1 protein kinase assay (CDC25C phosphorylation, [γ-32P]-ATP); type: biochemical; conditions: Table 2, PLK1 IC50; class symbols; read-out: PLK1 IC50
Sequence (P53350 whole entry): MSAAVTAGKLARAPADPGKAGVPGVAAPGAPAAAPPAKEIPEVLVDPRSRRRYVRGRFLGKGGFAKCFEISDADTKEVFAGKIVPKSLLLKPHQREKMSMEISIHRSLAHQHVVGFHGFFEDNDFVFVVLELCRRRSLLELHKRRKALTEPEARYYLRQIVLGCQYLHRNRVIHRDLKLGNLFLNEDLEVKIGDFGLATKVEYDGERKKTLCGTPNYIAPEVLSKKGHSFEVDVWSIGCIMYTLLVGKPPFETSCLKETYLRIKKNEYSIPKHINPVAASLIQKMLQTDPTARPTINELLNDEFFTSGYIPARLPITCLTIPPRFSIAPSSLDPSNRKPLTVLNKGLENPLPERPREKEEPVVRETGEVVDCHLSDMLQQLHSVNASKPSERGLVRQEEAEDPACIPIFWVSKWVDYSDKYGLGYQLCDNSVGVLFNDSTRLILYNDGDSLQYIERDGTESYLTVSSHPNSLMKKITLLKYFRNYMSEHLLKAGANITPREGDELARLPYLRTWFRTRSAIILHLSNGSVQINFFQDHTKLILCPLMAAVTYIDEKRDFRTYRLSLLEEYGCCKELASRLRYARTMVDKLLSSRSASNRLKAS

| IC50 | Compound |
| --- | --- |
| < 100 nM | COc1cc(C(=O)NCCO)ccc1Nc1ncc2c(n1)N(C1CCCC1)CC1(CC1)C(=O)N2C [compound 188, 4-(9-Cyclopentyl-5-methyl-6-oxo-6,7,8,9-tetrahydro-5H-spiro[pyrimido[4,5-b][1,4]diazepin-3,1′-cyclopropane]-2-ylamino)-N-(2-hydroxy-ethyl)-3-methoxy-benzamide] |
| < 100 nM | COc1cc(C(=O)NCCOCCO)ccc1Nc1ncc2c(n1)N(C1CCCC1)CC1(CC1)C(=O)N2C [compound 189, 4-(9-Cyclopentyl-5-methyl-6-oxo-6,7,8,9-tetrahydro-5H-spiro[pyrimido[4,5-b][1,4]diazepin-3,1′-cyclopropane]-2-ylamino)-N-[2-(2-hydroxy-ethoxy)-ethyl]-3-methoxy-benzamide] |
| < 100 nM | CONC(=O)c1ccc(Nc2ncc3c(n2)N(C2CCCC2)CC2(CC2)C(=O)N3C)c(OC)c1 [compound 190, 4-(9-Cyclopentyl-5-methyl-6-oxo-6,7,8,9-tetrahydro-5H-spiro[pyrimido[4,5-b][1,4]diazepin-3,1′-cyclopropane]-2-ylamino)-3,N-dimethoxy-benzamide] |
| < 10000 nM | CN1C(=O)CCN(C2CCCC2)c2nc(NC(=O)c3ccccc3)ncc21 [compound 193, N-(9-Cyclopentyl-5-methyl-6-oxo-6,7,8,9-tetrahydro-5H-pyrimido[4,5-b][1,4]diazepin-2-yl)-benzamide] |
| < 100 nM | COc1cc(C(=O)NCC2CCN(C)CC2)ccc1Nc1ncc2c(n1)N(C1CCCC1)CC(C)(C)C(=O)N2C [compound 196] |
| < 100 nM | COc1cc(C(=O)NC2CCN(Cc3ccccc3)CC2)ccc1Nc1ncc2c(n1)N(C1CCCC1)CC(C)(C)C(=O)N2C [compound 197, N-(1-Benzyl-piperidin-4-yl)-4-(9-cyclopentyl-5,7,7-trimethyl-6-oxo-6,7,8,9-tetrahydro-5H-pyrimido[4,5-b][1,4]diazepin-2-ylamino)-3-methoxy-benzamide] |
| < 1000 nM | COCCNC(=O)c1ccc(Nc2ncc3c(n2)N(C2CCCC2)CC(C)(C)C(=O)N3C)c(OC)c1 [compound 198, 4-(9-Cyclopentyl-5,7,7-trimethyl-6-oxo-6,7,8,9-tetrahydro-5H-pyrimido[4,5-b][1,4]diazepin-2-ylamino)-3-methoxy-N-(2-methoxy-ethyl)-benzamide] |
| < 100 nM | COc1cc(C(=O)NCc2ccncc2)ccc1Nc1ncc2c(n1)N(C1CCCC1)CC(C)(C)C(=O)N2C [compound 199, 4-(9-Cyclopentyl-5,7,7-trimethyl-6-oxo-6,7,8,9-tetrahydro-5H-pyrimido[4,5-b][1,4]diazepin-2-ylamino)-3-methoxy-N-pyridin-4-yl-ylmethyl-benzamide] |
| < 100 nM | COc1cc(C(=O)NCCc2c[nH]cn2)ccc1Nc1ncc2c(n1)N(C1CCCC1)CC(C)(C)C(=O)N2C [compound 200, 4-(9-Cyclopentyl-5,7,7-trimethyl-6-oxo-6,7,8,9-tetrahydro-5H-pyrimido[4,5-b][1,4]diazepin-2-ylamino)-N-[2-(1H-imidazol-4-yl)-ethyl]-3-methoxy-benzamide] |
| < 100 nM | COc1cc(C(=O)NCc2ccco2)ccc1Nc1ncc2c(n1)N(C1CCCC1)CC(C)(C)C(=O)N2C [compound 201, 4-(9-Cyclopentyl-5,7,7-trimethyl-6-oxo-6,7,8,9-tetrahydro-5H-pyrimido[4,5-b][1,4]diazepin-2-ylamino)-N-furan-2-ylmethyl-3-methoxy-benzamide] |
| < 100 nM | COc1cc(C(=O)NCC2CCCCN2C)ccc1Nc1ncc2c(n1)N(C1CCCC1)CCC(=O)N2C (stereo not shown) [compound 202, 4-(9-Cyclopentyl-5-methyl-6-oxo-6,7,8,9-tetrahydro-5H-pyrimido[4,5-b][1,4]diazepin-2-ylamino)-3-methoxy-N-(1-methyl-piperidin-2-ylmethyl)-benzamide] |
| < 1000 nM | COc1cc(C(=O)NCCN2CCOCC2)ccc1Nc1ncc2c(n1)N(C1CCCC1)CCC(=O)N2C [compound 203, 4-(9-Cyclopentyl-5-methyl-6-oxo-6,7,8,9-tetrahydro-5H-pyrimido[4,5-b][1,4]diazepin-2-ylamino)-3-methoxy-N-(2-morpholin-4-yl-ethyl)-benzamide] |
| < 100 nM | COc1cc(C(=O)NC2CCCC2)ccc1Nc1ncc2c(n1)N(C1CCCC1)CCC(=O)N2C [compound 204, N-Cyclopentyl-4-(9-cyclopentyl-5-methyl-6-oxo-6,7,8,9-tetrahydro-5H-pyrimido[4,5-b][1,4]diazepin-2-ylamino)-3-methoxy-benzamide] |
| < 100 nM | COc1cc(C(=O)NCc2cccn2C)ccc1Nc1ncc2c(n1)N(C1CCCC1)CCC(=O)N2C [compound 205, 4-(9-Cyclopentyl-5-methyl-6-oxo-6,7,8,9-tetrahydro-5H-pyrimido[4,5-b][1,4]diazepin-2-ylamino)-3-methoxy-N-(1-methyl-1H-pyrrol-2-ylmethyl)-benzamide] |
| < 100 nM | COc1cc(C(=O)NC2CCNCC2)ccc1Nc1ncc2c(n1)N(C1CCCC1)CCC(=O)N2C [compound 206, 4-(9-Cyclopentyl-5-methyl-6-oxo-6,7,8,9-tetrahydro-5H-pyrimido[4,5-b][1,4]diazepin-2-ylamino)-3-methoxy-N-piperidin-4-yl-benzamide] |
| < 10000 nM | COc1cc(C(=O)NC2CCN(C)CC2)ccc1Nc1ncc2c(n1)N(C1CC1)CCC(=O)N2C [compound 207, 4-(9-Cyclopropyl-5-methyl-6-oxo-6,7,8,9-tetrahydro-5H-pyrimido[4,5-b][1,4]diazepin-2-ylamino)-3-methoxy-N-(1-methyl-piperidin-4-yl)-benzamide] |
| < 1000 nM | COc1cc(C(=O)NC2CCN(C)CC2)ccc1Nc1ncc2c(n1)N(CCO)CCC(=O)N2C [compound 208, 4-[9-(2-Hydroxy-ethyl)-5-methyl-6-oxo-6,7,8,9-tetrahydro-5H-pyrimido[4,5-b][1,4]diazepin-2-ylamino]-3-methoxy-N-(1-methyl-piperidin-4-yl)-benzamide] |
| < 1000 nM | COc1cc(C(=O)NC2CCN(S(C)(=O)=O)CC2)ccc1Nc1ncc2c(n1)N(C1CCCC1)CCC(=O)N2C [compound 209, 4-(9-Cyclopentyl-5-methyl-6-oxo-6,7,8,9-tetrahydro-5H-pyrimido[4,5-b][1,4]diazepin-2-ylamino)-N-(1-methanesulfonyl-piperidin-4-yl)-3-methoxy-benzamide] |
| < 1000 nM | COc1cc(C(=O)NC2CCN(C(C)=O)CC2)ccc1Nc1ncc2c(n1)N(C1CCCC1)CCC(=O)N2C [compound 210, N-(1-Acetyl-piperidin-4-yl)-4-(9-cyclopentyl-5-methyl-6-oxo-6,7,8,9-tetrahydro-5H-pyrimido[4,5-b][1,4]diazepin-2-ylamino)-3-methoxy-benzamide] |
| < 1000 nM | CCOC(=O)CN1CCC(NC(=O)c2ccc(Nc3ncc4c(n3)N(C3CCCC3)CCC(=O)N4C)c(OC)c2)CC1 [compound 211, {4-[4-(9-Cyclopentyl-5-methyl-6-oxo-6,7,8,9-tetrahydro-5H-pyrimido[4,5-b][1,4]diazepin-2-ylamino)-3-methoxy-benzoylamino]-piperidin-1-yl}-acetic acid ethyl ester] |
| < 1000 nM | COc1cc(C(=O)NC2CCN(C(=O)c3ccccc3)CC2)ccc1Nc1ncc2c(n1)N(C1CCCC1)CCC(=O)N2C [compound 212, N-(1-Benzoyl-piperidin-4-yl)-4-(9-cyclopentyl-5-methyl-6-oxo-6,7,8,9-tetrahydro-5H-pyrimido[4,5-b][1,4]diazepin-2-ylamino)-3-methoxy-benzamide] |
| < 100 nM | CN1CCC(NC(=O)c2ccc(Nc3ncc4c(n3)N(C3CCCC3)CCC(=O)N4C)c(Cl)c2)CC1 [compound 214, 3-Chloro-4-(9-cyclopentyl-5-methyl-6-oxo-6,7,8,9-tetrahydro-5H-pyrimido[4,5-b][1,4]diazepin-2-ylamino)-N-(1-methyl-piperidin-4-yl)-benzamide] |
| < 1000 nM | CN1CCC(NC(=O)c2ccc(Nc3ncc4c(n3)N(C3CCCC3)CCC(=O)N4C)c(OC(F)(F)F)c2)CC1 [compound 216, 4-(9-Cyclopentyl-5-methyl-6-oxo-6,7,8,9-tefrahydro-5H-pyrimido[4,5-b][1,4]diazepin-2-ylamino)-N-(1-methyl-piperidin-4-yl)-3-trifluoromethoxy-benzamide] |
| < 1000 nM | COc1cc(C(=O)NC2CCN(Cc3ccccc3)CC2)ccc1Nc1ncc2c(n1)N(C1CCCC1)CC1(CCC1)C(=O)N2C [compound 217, 4-(9-Cyclopentyl-5-methyl-6-oxo-6,7,8,9-tetrahydro-5H-spiro[pyrimido[4,5-b][1,4]diazepin-3,1′-cyclobutane]-2-ylamino)-3-methoxy-N-(1-benzylpiperidin-4-yl)-benzamide] |
| < 100 nM | CCN(CC)CCNC(=O)c1ccc(Nc2ncc3c(n2)N(C2CCCC2)CC2(CCC2)C(=O)N3C)c(OC)c1 [compound 219, 4-(9-Cyclopentyl-5-methyl-6-oxo-6,7,8,9-tetrahydro-5H-spiro[pyrimido[4,5-b][1,4]diazepin-3,1′-cyclobutane]-2-ylamino)-N-(2-diethylamino-ethyl)-3-methoxy-benzamide] |
| < 1000 nM | COc1cc(C(=O)NCc2ccco2)ccc1Nc1ncc2c(n1)N(C1CCCC1)CC1(CCC1)C(=O)N2C [compound 222, 4-(9-Cyclopentyl-5-methyl-6-oxo-6,7,8,9-tetrahydro-5H-spiro[pyrimido[4,5-b][1,4]diazepin-3,1′-cyclobutane]-2-ylamino)-N-furan-2-ylmethyl-3-methoxy-benzamide] |
| < 10000 nM | COc1cc(C(=O)NC2CCN(C)CC2)ccc1Nc1ncc2c(n1)N(CCC(=O)NCCO)CCC(=O)N2C [compound 223, 4-{9-[2-(2-Hydroxy-ethylcarbamoyl)-ethyl]-5-methyl-6-oxo-6,7,8,9-tetrahydro-5H-pyrimido[4,5-b][1,4]diazepin-2-ylamino}-3-methoxy-N-(1-methyl-piperidin-4-yl)-benzamide] |
| < 1000 nM | CNC(=O)CCN1CCC(=O)N(C)c2cnc(Nc3ccc(C(=O)NC4CCN(C)CC4)cc3OC)nc21 [compound 224, 3-Methoxy-4-[5-methyl-9-(2-methylcarbamoyl-ethyl)-6-oxo-6,7,8,9-tetrahydro-5H-pyrimido[4,5-b][1,4]diazepin-2-ylamino]-N-(1-methyl-piperidin-4-yl)-benzamide] |
